Here are results for 19 molecules from ChEMBL document CHEMBL3351683, “Synthesis of lantadene analogs with marked in vitro inhibition of lung adenocarcinoma and TNF-α induced nuclear factor-kappa B (NF-κB) activation” (Bioorg Med Chem Lett, 2014).

One series has as its system A549. Kind of series: Cytotoxicity against human A549 cells after 48 hrs by MTT assay. The class given is functional, cell-based. The following applies: A549, 48 h. Background: Formazan colour is commonly taken as a measure of viable cells.
The nature of series [1]: Metabolic stability in 80% human plasma assessed as compound remaining at 5 mg/ml at 60 mins by HPLC analysis. The class given is ADME, cell-free. The following applies: read-out: Stability.
The target in series [2] is T1, Inhibitor of nuclear factor kappa-B kinase subunit beta (Homo sapiens, UniProt O14920).
T1 sequence (O14920 whole entry): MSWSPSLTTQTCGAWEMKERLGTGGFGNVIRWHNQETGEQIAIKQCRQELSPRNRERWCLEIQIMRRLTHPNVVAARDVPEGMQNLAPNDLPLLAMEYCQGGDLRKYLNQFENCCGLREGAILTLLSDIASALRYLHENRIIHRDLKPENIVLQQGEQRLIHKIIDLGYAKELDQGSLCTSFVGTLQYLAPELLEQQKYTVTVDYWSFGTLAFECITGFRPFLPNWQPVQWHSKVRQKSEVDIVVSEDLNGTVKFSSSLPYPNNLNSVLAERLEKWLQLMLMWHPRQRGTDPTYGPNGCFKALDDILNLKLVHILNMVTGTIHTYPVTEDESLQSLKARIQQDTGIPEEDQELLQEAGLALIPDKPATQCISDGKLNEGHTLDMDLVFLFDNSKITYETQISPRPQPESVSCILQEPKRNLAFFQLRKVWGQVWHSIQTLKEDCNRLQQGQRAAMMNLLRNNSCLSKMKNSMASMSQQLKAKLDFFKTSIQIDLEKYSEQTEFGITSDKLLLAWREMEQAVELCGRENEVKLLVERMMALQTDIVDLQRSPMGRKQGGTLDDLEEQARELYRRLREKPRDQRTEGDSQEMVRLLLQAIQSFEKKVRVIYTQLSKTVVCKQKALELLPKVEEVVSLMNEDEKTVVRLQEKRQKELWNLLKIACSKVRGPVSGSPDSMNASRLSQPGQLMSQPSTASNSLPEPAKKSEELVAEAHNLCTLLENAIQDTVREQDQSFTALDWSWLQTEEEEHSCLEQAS
In words: Inhibition of phosphorylation of human recombinant Flag-tagged IKKbeta expressed in Sf21 cells after 1 hr by Kinase-Glo luminescent kinase assay.

Series [3] in a line: Metabolic stability in 80% human plasma assessed as compound remaining at 5 mg/ml at 30 mins by HPLC analysis. The settings on record: read-out: Stability. The class given is ADME, cell-free.
The nature of series [4]: Metabolic stability in 80% human plasma assessed as compound remaining at 5 mg/ml at 120 mins by HPLC analysis. The class given is ADME, cell-free. The settings on record: read-out: Stability.
Series [5] can be described thus: Stability in simulated gastric fluid at pH 2 assessed as compound remaining measured at 5 mg/ml at 2 hrs by HPLC analysis. The settings on record: read-out: Stability. Format: ADME.
Series [6] in a line: Stability in simulated gastric fluid at pH 2 assessed as compound remaining measured at 5 mg/ml at 8 hrs by HPLC analysis. Format: ADME. The settings on record: read-out: Stability.
The nature of series [7]: Stability in simulated gastric fluid at pH 2 assessed as compound remaining measured at 5 mg/ml at 12 hrs by HPLC analysis. The class given is ADME. The following applies: read-out: Stability.
A short description of series [8]: Stability in simulated gastric fluid at pH 2 assessed as compound remaining measured at 5 mg/ml at 5 hrs by HPLC analysis. The class given is ADME. The settings on record: read-out: Stability.
The nature of series [9]: Metabolic stability in 80% human plasma assessed as compound remaining at 5 mg/ml at 15 mins by HPLC analysis. The class given is ADME, cell-free. The following applies: read-out: Stability.
Series [10] has as its target T2, Inhibitor of nuclear factor kappa-B kinase subunit beta (Homo sapiens) (UniProt O14920).
T2 sequence (whole entry): T1 sequence (O14920 whole entry)
The settings on record: A549, 0.5 to 1 uM.
Description: Inhibition of TNFalpha-induced IKKbeta-mediated IkappaB degradation in human A549 cells compound treated for 8 hrs at 0.5 to 1 uM followed by TNFalpha stimulation measured after 30 mins by Western blot analysis relative to control

A word on the IC50: it is the concentration needed to halve the response being measured.

Each structure is given as a SMILES string. The source made the active and inactive calls. The calls are words filed in the database; no cut-off is given here. Some results are limits rather than exact numbers.

In the case of `CC(C)=CC(=O)O[C@@H]1CC(C)(C)C[C@H]2C3=CC[C@@H]4[C@@]5(C)CCC(=O)C(C)(C)[C@@H]5CC[C@@]4(C)[C@]3(C)CC[C@@]12C(=O)O`, half-maximal inhibition in the series on A549 (IC50) required 1190 nM.

The molecule `C/C=C(/C)C(=O)O[C@@H]1CC(C)(C)C[C@H]2C3=CC[C@@H]4[C@@]5(C)CCC(=O)C(C)(C)[C@@H]5CC[C@@]4(C)[C@]3(C)CC[C@@]12C(=O)O` [LANTADENE A] returned a concentration for half-maximal inhibition (IC50) with A549 of 2840 nM.

As for `CCCC(=O)O[C@@H]1CC(C)(C)C[C@H]2C3=CC[C@@H]4[C@@]5(C)CCC(=O)C(C)(C)[C@@H]5CC[C@@]4(C)[C@]3(C)CC[C@@]12C(=O)O`, in the series on A549, the half-maximal inhibitory concentration (IC50) is > 10000 nM.

`CC(C)=CC(=O)O[C@@H]1CC(C)(C)C[C@H]2C3=CC[C@@H]4[C@@]5(C)CC[C@H](OC(=O)c6cccc(F)c6)C(C)(C)[C@@H]5CC[C@@]4(C)[C@]3(C)CC[C@@]12C(=O)O`: in the series on A549, inhibition was half-maximal at 6860 nM (IC50).

As for `C/C=C(/C)C(=O)O[C@@H]1CC(C)(C)C[C@H]2C3=CC[C@@H]4[C@@]5(C)CC[C@H](OC(=O)C(C)C)C(C)(C)[C@@H]5CC[C@@]4(C)[C@]3(C)CC[C@@]12C(=O)O`, the half-maximal inhibitory concentration (IC50) with A549 is > 10000 nM.

As to `CC(C)C(=O)O[C@@H]1CC(C)(C)C[C@H]2C3=CC[C@@H]4[C@@]5(C)CCC(=O)C(C)(C)[C@@H]5CC[C@@]4(C)[C@]3(C)CC[C@@]12C(=O)O`, in the series on A549, the IC50 is > 10000 nM.

As to `C/C=C(/C)C(=O)O[C@@H]1CC(C)(C)C[C@H]2C3=CC[C@@H]4[C@@]5(C)CC[C@H](OC(=O)CCC)C(C)(C)[C@@H]5CC[C@@]4(C)[C@]3(C)CC[C@@]12C(=O)O`, the 50% inhibitory concentration (IC50) in the series on A549 was > 10000 nM.

`C/C=C(/C)C(=O)O[C@@H]1CC(C)(C)C[C@H]2C3=CC[C@@H]4[C@@]5(C)CC[C@H](OC(=O)c6ccc(Cl)cc6)C(C)(C)[C@@H]5CC[C@@]4(C)[C@]3(C)CC[C@@]12C(=O)O` returned an IC50 in the series with A549 of 1320 nM.

On to `CC(C)=CC(=O)O[C@@H]1CC(C)(C)C[C@H]2C3=CC[C@@H]4[C@@]5(C)CC[C@H](OC(=O)c6ccc(Cl)cc6)C(C)(C)[C@@H]5CC[C@@]4(C)[C@]3(C)CC[C@@]12C(=O)O`, for which the results for the half-inhibitory concentration (IC50) (with A549; in [2]) were 1120 nM and 1540 nM, respectively. Moreover, the remaining at 1 h, 5 mg/ml in [1] amounted to 44.3%. Besides, in series [3], the remaining at 0.5 h, 5 mg/ml is 52.2%. In addition, the remaining at 2 h, 5 mg/ml in series [4] was 32.3%; in series [5], 92.2%. In series [6], the remaining at 8 h, 5 mg/ml is 80.3%. Moreover, the remaining at 12 h, 5 mg/ml in series [7] is 72.8%. In addition, the remaining at 5 h, 5 mg/ml in series [8] was 86.5%. Besides, the remaining at 0.25 h, 5 mg/ml in series [9] was found to be 70.2%.

For `C/C=C(/C)C(=O)O[C@@H]1CC(C)(C)C[C@H]2C3=CC[C@@H]4[C@@]5(C)CC[C@H](OC(=O)c6cccc(F)c6)C(C)(C)[C@@H]5CC[C@@]4(C)[C@]3(C)CC[C@@]12C(=O)O`, in the series on A549, the 50% inhibitory concentration (IC50) was > 10000 nM.

Take `COc1cccc(C(=O)O[C@H]2CC[C@]3(C)[C@H]4CC=C5[C@@H]6CC(C)(C)C[C@@H](OC(=O)C=C(C)C)[C@]6(C(=O)O)CC[C@@]5(C)[C@]4(C)CC[C@H]3C2(C)C)c1`: the IC50 with A549 stood at 980 nM; in [2], 1360 nM. The remaining at 1 h, 5 mg/ml in series [1] came out at 46.7%. The remaining at 0.5 h, 5 mg/ml in series [3] was 53.2%. The remaining at 2 h, 5 mg/ml in series [4] is 35.3%; in series [5] it was 93%. Also, the remaining at 8 h, 5 mg/ml in series [6] was 83.3%. Further, the remaining at 12 h, 5 mg/ml in [7] is 77.2%. The remaining at 5 h, 5 mg/ml in series [8] was 88.2%. The inhibition entry in series [10] is “Active”. The remaining at 0.25 h, 5 mg/ml in series [9] worked out at 70.4%.

Take `C/C=C(/C)C(=O)O[C@@H]1CC(C)(C)C[C@H]2C3=CC[C@@H]4[C@@]5(C)CC[C@H](OC(=O)c6cccc(OC)c6)C(C)(C)[C@@H]5CC[C@@]4(C)[C@]3(C)CC[C@@]12C(=O)O`: the IC50 in the series with A549 was determined as 1840 nM.

Consider `CCCC(=O)O[C@H]1CC[C@]2(C)[C@H]3CC=C4[C@@H]5CC(C)(C)C[C@@H](OC(=O)C=C(C)C)[C@]5(C(=O)O)CC[C@@]4(C)[C@]3(C)CC[C@H]2C1(C)C`, for which the IC50 with A549 was > 10000 nM.

In the case of `C/C=C(/C)C(=O)O[C@@H]1CC(C)(C)C[C@H]2C3=CC[C@@H]4[C@@]5(C)CC[C@H](O)C(C)(C)[C@@H]5CC[C@@]4(C)[C@]3(C)CC[C@@]12C(=O)O` [Reduced Lantadene A], the results for the 50% inhibitory concentration (IC50) (in the series with A549; in [2]) were 790 nM and 2620 nM, respectively.

In the series with A549, `C/C=C(/C)C(=O)O[C@@H]1CC(C)(C)C[C@H]2C3=CC[C@@H]4[C@@]5(C)CC[C@H](OC(=O)c6ccccc6F)C(C)(C)[C@@H]5CC[C@@]4(C)[C@]3(C)CC[C@@]12C(=O)O` yielded an IC50 of 2040 nM.

Take `CC(C)=CC(=O)O[C@@H]1CC(C)(C)C[C@H]2C3=CC[C@@H]4[C@@]5(C)CC[C@H](O)C(C)(C)[C@@H]5CC[C@@]4(C)[C@]3(C)CC[C@@]12C(=O)O` [Reduced Lantadene B]: the results for the IC50 (in the series with A549; in series [2] (sf21)) were 430 nM and 4240 nM, respectively.

`CC(C)=CC(=O)O[C@@H]1CC(C)(C)C[C@H]2C3=CC[C@@H]4[C@@]5(C)CC[C@H](OC(=O)C(C)C)C(C)(C)[C@@H]5CC[C@@]4(C)[C@]3(C)CC[C@@]12C(=O)O` registered a half-maximal inhibitory concentration (IC50) in the series on A549 of 2560 nM.

Consider `CC(C)=CC(=O)O[C@@H]1CC(C)(C)C[C@H]2C3=CC[C@@H]4[C@@]5(C)CC[C@H](OC(=O)c6ccccc6F)C(C)(C)[C@@H]5CC[C@@]4(C)[C@]3(C)CC[C@@]12C(=O)O`, for which the midpoint of inhibition in the series on A549, the IC50, lay at 1960 nM.

`CC1(C)C[C@@H](O)[C@]2(C(=O)O)CC[C@]3(C)C(=CC[C@@H]4[C@@]5(C)CCC(=O)C(C)(C)[C@@H]5CC[C@]43C)[C@@H]2C1`: the IC50 in the series with A549 is > 10000 nM.
